Source: patent publication US10206909B2, “3-(1H-pyrrolo[2,3-B]pyridin-2-yl)-1H-pyrazolo[4,3-B]pyridines and therapeutic uses thereof” (Samumed, LLC, priority 2015, dated 2019)

Key:
Type in all cases: cell-based
[1] = system: Wnt activity (Sp5-Luc reporter, SW480 colon carcinoma cells); assay: Wnt activity screening assay: Sp5-Luc reporter gene assay in SW480 cells; conditions: Homo sapiens; for EC50: SW480 cells, overnight incubation; for inhibition at 10 µM: given where EC50 >10 μM, SW480, read-out: percent inhibition at 10 μM
Procedure, shortened: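 Luminescence (BrightGlo) read after overnight 37 °C exposure of Sp5-Luc SW480 reporter cells, 4,000/well in 1% FBS, to compound dosed 1:3 over 10 points from 10 μM with 0.1% DMSO. Values normalized to DMSO-only cells, fitted with variable-slope four-parameter model; where EC50 exceeds 10 μM, % inhibition at 10 μM reported.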

[2] = system: SW480 colon cancer cells; assay: Cell viability assay (CellTiter-Blue); conditions: Homo sapiens; for EC50: 96 h, SW480 cell viability, four days, CellTiter-Blue; for inhibition at 10 µM: given where EC50 >10 μM, SW480 viability, read-out: percent inhibition at 10 μM
Procedure, shortened: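 Four-day viability readout in SW480 cells: compound at 0.0045–10 μM (1:3 series), DMSO controls in eight replicates, CellTiter-Blue fluorescence after ~3 h. Values are regression-derived EC50s, or percent inhibition at 10 μM when EC50 exceeds 10 μM.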

[3] = system: IL-6 (THP-1 cells); assay: IL-6 inhibition in LPS-stimulated THP-1 cells (HTRF); conditions: Homo sapiens; for EC50: THP-1 cells, LPS 500 ng/mL, 22 hours, IL6 HTRF; for inhibition at 10 µM: given where EC50 >10 μM, THP-1, IL6, read-out: percent inhibition at 10 μM
Procedure, shortened: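 THP-1 cells, pre-cultured 24 h in 1% FBS, were preincubated 2 h with compound over a 10-point 1:3 series from 10 μM (0.1% DMSO). They were then stimulated with 500 ng/mL LPS for 22 h at 37° C. IL-6 was read by HTRF 665/620 nm ratio, and EC50 was fitted by four-parameter regression against DMSO; above 10 μM, % inhibition at 10 μM is given.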

Structure (SMILES) | EC50 [1] | EC50 [2] | EC50 [3] | inhibition at 10 µM [3] | inhibition at 10 µM [1] | inhibition at 10 µM [2]
CN1CCN(c2ccnc3[nH]c(-c4n[nH]c5ccc(-c6cncc(NC(=O)c7ccccc7)c6)nc45)cc23)CC1 [Compound 235, N-(5-(3-(4-(4-Methylpiperazin-1-yl)-1H-pyrrolo[2,3-b]pyridin-2-yl)-1H-pyrazolo[4,3-b]pyridin-5-yl)pyridin-3-yl)benzamide] | 6.09 µM | 3.27 µM | > 10 µM | 48.1% | – | –
c1cncc(-c2ccc3[nH]nc(-c4cc5cccnc5[nH]4)c3n2)c1 [Compound 256, 5-(Pyridin-3-yl)-3-(1H-pyrrolo[2,3-b]pyridin-2-yl)-1H-pyrazolo[4,3-b]pyridine] | > 10 µM | > 10 µM | 0.002 µM | – | 47% | 23.2%
CN(C)Cc1cncc(-c2ccc3[nH]nc(-c4cc5cccnc5[nH]4)c3n2)c1 [Compound 265, 1-(5-(3-(1H-Pyrrolo[2,3-b]pyridin-2-yl)-1H-pyrazolo[4,3-b]pyridin-5-yl)pyridin-3-yl)-N,N-dimethylmethanamine] | > 10 µM | 4.21 µM | 0.653 µM | – | 20.6% | –
O=C(Nc1cncc(-c2ccc3[nH]nc(-c4cc5cccnc5[nH]4)c3n2)c1)C1CCCCC1 [Compound 275, N-(5-(3-(1H-Pyrrolo[2,3-b]pyridin-2-yl)-1H-pyrazolo[4,3-b]pyridin-5-yl)pyridin-3-yl)cyclohexanecarboxamide] | > 10 µM | > 10 µM | 0.157 µM | – | 14.9% | 10.5%
c1cnc2[nH]c(-c3n[nH]c4ccc(-c5cncnc5)nc34)cc2c1 [Compound 279, 5-(Pyrimidin-5-yl)-3-(1H-pyrrolo[2,3-b]pyridin-2-yl)-1H-pyrazolo[4,3-b]pyridine] | > 10 µM | > 10 µM | 0.003 µM | – | 8% | 14.3%
CN(C)c1cncc(-c2ccc3[nH]nc(-c4cc5c(-c6ccoc6)ccnc5[nH]4)c3n2)c1 [Compound 315, 5-(3-(4-(Furan-3-yl)-1H-pyrrolo[2,3-b]pyridin-2-yl)-1H-pyrazolo[4,3-b]pyridin-5-yl)-N,N-dimethylpyridin-3-amine] | > 10 µM | > 10 µM | 0.418 µM | – | 6.6% | 6.1%
O=C(Cc1ccccc1)Nc1cncc(-c2ccc3[nH]nc(-c4cc5c(-c6ccoc6)ccnc5[nH]4)c3n2)c1 [Compound 318, N-(5-(3-(4-(Furan-3-yl)-1H-pyrrolo[2,3-b]pyridin-2-yl)-1H-pyrazolo[4,3-b]pyridin-5-yl)pyridin-3-yl)-2-phenylacetamide] | > 10 µM | > 10 µM | > 10 µM | 46.6% | 3.4% | 3%
c1csc(-c2ccnc3[nH]c(-c4n[nH]c5ccc(-c6ccncc6)nc45)cc23)c1 [Compound 354, 5-(Pyridin-4-yl)-3-(4-(thiophen-2-yl)-1H-pyrrolo[2,3-b]pyridin-2-yl)-1H-pyrazolo[4,3-b]pyridine] | > 10 µM | > 10 µM | 1.61 µM | – | 14.6% | 39.8%
c1csc(-c2ccnc3[nH]c(-c4n[nH]c5ccc(-c6cncnc6)nc45)cc23)c1 [Compound 363, 5-(Pyrimidin-5-yl)-3-(4-(thiophen-2-yl)-1H-pyrrolo[2,3-b]pyridin-2-yl)-1H-pyrazolo[4,3-b]pyridine] | > 10 µM | > 10 µM | > 10 µM | 36.3% | 29.8% | 29.3%
CN(C)CCNc1cc(F)cc(-c2ccnc3[nH]c(-c4n[nH]c5ccc(-c6ccncc6)nc45)cc23)c1 [Compound 466, N^1-(3-Fluoro-5-(2-(5-(pyridin-4-yl)-1H-pyrazolo[4,3-b]pyridin-3-yl)-1H-pyrrolo[2,3-b]pyridin-4-yl)phenyl)-N^2,N^2-dimethylethane-1,2-diamine] | > 10 µM | > 10 µM | > 10 µM | 31% | 8.6% | 16.8%
CN(C)CCNc1cc(F)cc(-c2ccnc3[nH]c(-c4n[nH]c5ccc(-c6cncc(CNCC7CCCC7)c6)nc45)cc23)c1 [Compound 473, N^1-(3-(2-(5-(5-(((Cyclopentylmethyl)amino)methyl)pyridin-3-yl)-1H-pyrazolo[4,3-b]pyridin-3-yl)-1H-pyrrolo[2,3-b]pyridin-4-yl)-5-fluorophenyl)-N^2,N^2-dimethylethane-1,2-diamine] | 4.67 µM | 2.26 µM | 6.75 µM | – | – | –
Fc1cccc(-c2ccnc3[nH]c(-c4n[nH]c5ccc(-c6cncc(OCc7ccccc7)c6)nc45)cc23)c1 [Compound 518, 5-(5-(Benzyloxy)pyridin-3-yl)-3-(4-(3-fluorophenyl)-1H-pyrrolo[2,3-b]pyridin-2-yl)-1H-pyrazolo[4,3-b]pyridine] | > 10 µM | > 10 µM | > 10 µM | 9.6% | 16.7% | 17.3%
CN(C)CCOc1cncc(-c2ccc3[nH]nc(-c4cc5c(-c6cccnc6)ccnc5[nH]4)c3n2)c1 [Compound 563, N,N-Dimethyl-2-((5-(3-(4-(pyridin-3-yl)-1H-pyrrolo[2,3-b]pyridin-2-yl)-1H-pyrazolo[4,3-b]pyridin-5-yl)pyridin-3-yl)oxy)ethan-1-amine] | > 10 µM | > 10 µM | > 10 µM | 20.3% | 7.2% | 0%
c1cc(-c2ccnc3[nH]c(-c4n[nH]c5ccc(-c6cncc(OCCN7CCCC7)c6)nc45)cc23)ccn1 [Compound 578, 3-(4-(Pyridin-4-yl)-1H-pyrrolo[2,3-b]pyridin-2-yl)-5-(5-(2-(pyrrolidin-1-yl)ethoxy)pyridin-3-yl)-1H-pyrazolo[4,3-b]pyridine] | > 10 µM | > 10 µM | > 10 µM | 27% | 7.7% | 14.7%
c1cc(N2CCCCC2)c2cc(-c3n[nH]c4ccc(C5CCNCC5)nc34)[nH]c2n1 [Compound 601, 3-(4-(Piperidin-1-yl)-1H-pyrrolo[2,3-b]pyridin-2-yl)-5-(piperidin-4-yl)-1H-pyrazolo[4,3-b]pyridine] | > 10 µM | > 10 µM | 3.5 µM | – | 3.5% | 40.7%

Stronger by EC50 [1], values ahead:

EC50 [1] | EC50 [2] | EC50 [3] | Structure (SMILES) | inhibition at 10 µM [3] | inhibition at 10 µM [1] | inhibition at 10 µM [2]
3.45 µM | 1.55 µM | 3.27 µM | CC(C)CC(=O)Nc1cncc(-c2ccc3[nH]nc(-c4cc5c(N6CCN(C)CC6)ccnc5[nH]4)c3n2)c1 [Compound 226, 3-Methyl-N-(5-(3-(4-(4-methylpiperazin-1-yl)-1H-pyrrolo[2,3-b]pyridin-2-yl)-1H-pyrazolo[4,3-b]pyridin-5-yl)pyridin-3-yl)butanamide] | – | – | –
3.83 µM | 1.44 µM | 3.43 µM | CN1CCN(c2ccnc3[nH]c(-c4n[nH]c5ccc(-c6cncc(NC(=O)C(C)(C)C)c6)nc45)cc23)CC1 [Compound 232, N-(5-(3-(4-(4-Methylpiperazin-1-yl)-1H-pyrrolo[2,3-b]pyridin-2-yl)-1H-pyrazolo[4,3-b]pyridin-5-yl)pyridin-3-yl)pivalamide] | – | – | –
3.91 µM | 2 µM | > 10 µM | CN1CCN(c2ccnc3[nH]c(-c4n[nH]c5ccc(-c6cncc(NC(=O)CC(C)(C)C)c6)nc45)cc23)CC1 [Compound 240, 3,3-Dimethyl-N-(5-(3-(4-(4-methylpiperazin-1-yl)-1H-pyrrolo[2,3-b]pyridin-2-yl)-1H-pyrazolo[4,3-b]pyridin-5-yl)pyridin-3-yl)butanamide] | 43.5% | – | –
3.78 µM | 2.81 µM | > 10 µM | CCNCc1cncc(-c2ccc3[nH]nc(-c4cc5cccnc5[nH]4)c3n2)c1 [Compound 258, N-((5-(3-(1H-Pyrrolo[2,3-b]pyridin-2-yl)-1H-pyrazolo[4,3-b]pyridin-5-yl)pyridin-3-yl)methyl)ethanamine] | 4.6% | – | –
0.104 µM | 0.345 µM | 0.107 µM | FC1(F)CCN(Cc2cncc(-c3ccc4[nH]nc(-c5cc6cccnc6[nH]5)c4n3)c2)C1 [Compound 278, 5-(5-((3,3-Difluoropyrrolidin-1-yl)methyl)pyridin-3-yl)-3-(1H-pyrrolo[2,3-b]pyridin-2-yl)-1H-pyrazolo[4,3-b]pyridine] | – | – | –
0.31 µM | > 10 µM | > 10 µM | Oc1cncc(-c2ccc3[nH]nc(-c4cc5c(-c6ccc(F)cc6)ccnc5[nH]4)c3n2)c1 [Compound 533, 5-(3-(4-(4-Fluorophenyl)-1H-pyrrolo[2,3-b]pyridin-2-yl)-1H-pyrazolo[4,3-b]pyridin-5-yl)pyridin-3-ol] | 37.1% | – | 15.4%
